The record followed here is paper PMC12442099 (ACS Infectious Diseases, 2025).

≈ marks a conversion by molar mass, not a printed value.

For data set [1], the system named is E. coli TOP10F’. As to the kind of experiment: NPN uptake assay (outer membrane permeability). The format is cell-based. The note with it: 1 h, 10 μM NPN. On the procedure:
To investigate the effect of our quinolone hits on membrane permeability, we performed a 1-N- phenylnaphthylamine NPN uptake assay (Figure ), as described previously. NPN is a hydrophobic fluorophore that is unable to cross the OM under normal conditions.
6 Effect of compounds (A) A2 and (B) B1 on membrane integrity analyzed by NPN permeability. Polymyxin B was used at 1 μM and PMBN at 4 μM as membrane permeabilizing control compounds. Data represent the average relative fluorescence values of three independent experiments performed in triplicate. Error bars represent standard deviation of three independent experiments. Data were analyzed using a One-Way ANOVA with Dunnett’s multiple comparisons. **: p = 0.0017; ****: p < 0.0001.
ONC of E. coli TOP10F’ grown in LB were diluted to OD600 = 0.1 and subsequently grown until OD600 0.5 was reached. Bacterial cells were then pelleted at 1,000g for 10 min and resuspended in assay buffer (5 mM HEPES + 20 mM glucose, pH 7.2) to 1.0 OD600 units/ml. The cell suspension was then added to a black, clear bottom 96-well plate (Greiner Bio-One) at a final concentration of 0.5 OD600 units/ml. […] NPN fluorescence (Ex./Em. λ 355, 420) was measured after 1h incubation at room temperature. Relative fluorescence was calculated following the correction of NPN fluorescence in the absence of compound: NPNuptake=[Fobs−Fb]/[Fcontrol−Fb]

Data set [2] relates to Rcs stress response in E. coli MC4100 (WT, FQR, GEPR). As to the kind of experiment: Rcs stress reporter assay in MC4100 wildtype and resistant mutants. Format: cell-based. The note with it: EC80 concentrations. The text has this: Serial passaging of E. coli MC4100 in the presence of increasing concentrations of lomefloxacin or gepotidacin yielded resistant variants of E. coli MC4100. We used MC4100 to raise resistance, because unlike the screening strain TOP10F’, this strain has a functional SOS stress response, which has been implicated in developing resistance against quinolones. Compounds also elicited a robust Rcs stress response in E. coli MC4100, allowing for this strain to be used for stress assays.
4 Rcs stress induced by EC80 concentrations of (A) lomefloxacin, (B) gepotidacin, (C) A2, and (D) B1 in wildtype (WT), fluoroquinolone resistant (FQR) or gepotidacin resistant (GEPR) bacteria. Graphs show the fold change in fluorescence adjusted for bacterial growth as determined by OD600. Error bars indicate the standard deviation of triplicate samples. Data are representative of three independent experiments with similar results. […]
For lower throughput analysis under laboratory conditions, cultures grown to OD600 of 0.3–0.4 were diluted to a final concnetration of 0.05 OD600 units/mL in black, clear-bottom 96-well plates (Greiner Bio-One B.V.). Plates were incubated in a Biotek HTX or H1 plate reader (Agilent Technologies) at 37 °C with continuous shaking. Kinetic studies were performed by measuring OD600 and fluorescence (Ex./Em. Λ: 485/528 nm) every 20 min for 10h. For end point measurements, fluorescence was measured at T = 0 and once more at T = 150 min.
(In general: Reporter assays use an easily measured gene product as a stand-in for the process of interest.)

The test system of data set [3] is E. coli MC4100 FQR and GEPR mutants. Briefly: Growth kinetics on resistant mutants. Format: cell-based. The note with it: EC80 concentrations, Fig. S3. The method, then: ONC of E. coli MC4100 were diluted to OD600 = 0.07 in 20 mL LB supplemented with an initial concentration of 0.4 μM lomefloxacin, 8 μM gepotidacin, or no antibiotic. After overnight incubation, part of the culture was plated onto LB agar plates with the same concentration of lomefloxacin or gepotidacin to isolate resistant colonies. OD600 of the remaining culture was determined and diluted to OD600 = 0.1 into fresh medium with a 1.5–2-fold increased concentration of lomefloxacin or gepotidacin. […] Resistant colonies were sent for Whole Genome Sequencing using short Illumina reads at MicrobesNG (Birmingham, UK). Sequencing data was analyzed using CLC Genomics Workbench (Qiagen).
Figure S3: Growth kinetics of lomefloxacin, gepotidacin, A2 and B1 on WT, FQR and GEPR mutants. E. coli
TOP10F’ cells were treated with EC80 concentrations of compounds and growth (OD600) recorded over time.
Graphs indicate % growth compared to DMSO control. Error bars indicate standard deviations of triplicates. […]

Data set [4] concerns E. coli TOP10F'. Briefly: Growth inhibition after 7 hours (EC80/EC50). The note with it: for EC50 / IC80: Escherichia coli, 7 h; for EC50: read-out: EC50 TOP10F'; for IC80: read-out: EC80 TOP10F'.
Data set [5] has as its system E. coli MC4100. As to the kind of experiment: Growth inhibition after 7 hours (EC80/EC50). The settings on record: Escherichia coli, MC4100, 7 h; for EC50: read-out: EC50 MC4100; for IC80: read-out: EC80 MC4100.
Data set [6] relates to E. coli TOP10F’ cells. As to the kind of experiment: Phase contrast and fluorescence microscopy of cell morphology. Format: cell-based. The settings on record: EC50 concentrations, 4 h, vs DMSO. The source says:
DMSO-treated control cells had normal rod-shaped morphology. Drastic changes to cell and membrane morphology were observed following compound treatment.
Cells were stained with Nile red to visualize membranes and Hoechst to label DNA. a: Phase Contrast; b: Nile Red; c: Hoechst; d: overlay of Nile Red and Hoechst. White arrows indicate differences observed between control and compound treated cells, such as different localization and increased number of bright, lipid spots, vesicle-like bulges, apparent leakage of lipid contents and condensed DNA. Pictures are representative of at least 5 images taken per sample, during two independent experiments with similar results. Bottom panels show (B) cell length or (C) cell area after treatment with DMSO or EC50 concentrations of A2 or B1. Cells were analyzed after 4h of compound treatment. Data are representative of two independent experiments with similar results. Data were analyzed using a One-Way ANOVA with Kruskal–Wallis test for multiple comparisons. **** = p < 0.0001. Cells were counted from 3 to 5 pictures of each condition (DMSO: n = 1773, A2: n = 1920, B1: n = 555). Data are representative of two individual experiments with similar results.
Cells were collected at 4600g for 5 min. […]
Images were processed using ImageJ. Cell length and width were quantified using Oufti. Image data were analyzed using GraphPad Prism 10.3.1. […]

The EC50 is the midpoint of the concentration-response curve. Regarding `CC(C)(C)n1cc(C(=O)O)c(=O)c2cc(F)c(N3CC4CC3CN4)nc21` (centres unmarked) [A2], the “NPN relative fluorescence (membrane permeability)” value in data set [1] was “significant increase in relative fluorescence at 4 and 16 μM”. Also, the “Rcs stress in FQR (gyrA S83L) mutant” value in data set [2] is given as “lacked Rcs stress”. For the same molecule, in data set [3], the “growth inhibition / susceptibility of FQR (gyrA S83L) mutant” value is reported as “showed cross-resistance” and the “growth inhibition / susceptibility of GEPR mutant” value is “less susceptible”. Also, in data set [4], the 50% effective concentration (EC50) came to 0.016 µg/mL (≈ 0.0444 µM) and the IC80 turned out to be 0.063 µg/mL (≈ 0.175 µM). The EC80 concentration entry in data set [4] (as quoted in the NPN section) is reported as “around 0.35 μM”. Besides, in data set [5], the EC50 worked out at 0.125 µg/mL (≈ 0.347 µM) and the IC80 turned out to be 0.25 µg/mL (≈ 0.694 µM). Moreover, the cell length result in data set [6] is on record as “significantly increased the overall average length of the cells”.

Turning to `O=C1COc2ccc(CNC3CCN(CC4Cc5c(F)cc(F)c6ccc(=O)n4c56)CC3)nc2N1` (centres unmarked) [B1], in data set [1], the “NPN relative fluorescence (membrane permeability)” value is “did not exhibit an increase in fluorescence”. Also, in data set [2], the “Rcs stress in FQR (gyrA S83L) mutant” value was “still exhibited Rcs stress” and the “Rcs stress in GEPR mutant” value is on record as “did not show Rcs stress”. For the same molecule, in data set [3], the “growth inhibition / susceptibility of FQR (gyrA S83L) mutant” value was “remained susceptible to growth inhibition” and the “growth inhibition / susceptibility of GEPR mutant” value is on record as “exhibited cross-resistance”. In data set [4], the EC50 is 0.031 µg/mL (≈ 0.0644 µM) and the IC80 is 0.5 µg/mL (≈ 1.04 µM). In addition, in data set [5], the concentration giving a half-maximal response (EC50) came to 0.5 µg/mL (≈ 1.04 µM) and the IC80 was 2 µg/mL (≈ 4.15 µM). For the same molecule, the cell length entry in data set [6] was “significantly increased the overall average length of the cells”.
